Measurements from patent US10968214B2, “KRas G12C inhibitors” (Eli Lilly and Company, priority 2018, dated 2021).
Like-named read-outs stand apart in the source and are kept apart here.

Assays:
[1] = tested on: Miapaca-2; experiment: CellTiterGlo Cell Proliferation Assay, Miapaca-2; format: cell-based; conditions: Homo sapiens, MIA PaCa-2, KRas G12C, Pancreas, 96 hr
Procedure: (§1) A panel of tumor cell lines harboring KRas G12C or other KRas mutations are collected (Table 6). All cell lines are from ATCC or other sources indicated.
(§2) Typically cells are cultured in RPMI1640 or Dulbecco's modified Eagle's medium (DMEM, GIBCO) supplemented with 10% FBS (GIBCO, Invitrogen). For 2D culture cells (4×10^3/well) maintained in growth medium described above, are plated onto 96 well tissue culture plates Corning® Cat. 3603) a day before the treatment. For 3D culture 8000 cells/well are seeded onto 96 well ultra-low attachment tissue culture plates (Corning, #3474). The cells are treated compound for 96 hr, and then are analyzed for viability using the CellTiterGlo® Luminescent Cell Viability Assay® (Promega #G7572 for 2D and Promega #G9683 for 3D cultures) according to manufacturer's instructions and an EnVision™ plate reader. Nonlinear regression and sigmoidal dose-response curves are used to calculate the half maximal inhibitory concentration (IC50) with GraphPad Prism 4® software.

[2] = tested on: Calu-6; experiment: CellTiterGlo Cell Proliferation Assay, Calu-6; format: cell-based; conditions: Homo sapiens, KRas Q61K, lung, 96 hr
Procedure: as §1, §2

[3] = tested on: pMEK in H358 xenograft tumors; experiment: In vivo target inhibition/PD, H358 xenograft, pMEK; design: species or system mouse; conditions: for inhibition at 30 mg/kg: 30 mg/kg single dose
Procedure: To evaluate in vivo target inhibition and anti-tumor efficacy of a compound, Human lung cancer cells, H358 or H2122 are implanted into nude mice xenograft tumor models. Either H358 or H2122 cells (10×10^6 in a 1:1 Matrigel® mix, 0.2 mL total volume) are implanted by subcutaneous injection in hind leg of nude female mice (Harlan Laboratories). A total of 5 mice each group are used for efficacy study, and a total of 3-4 mice each group are used for target engagement and PD study. Treatment is initiated with oral administration (gavage) of a test compound or vehicle (20% Captisol®, 25 mM phosphate, pH 2.0 in 0.2 mL volume when the tumor size reaches approximately […]. Tumor growth and body weight are monitored over time to evaluate efficacy and signs of toxicity. Bidimensional measurements of tumors are performed twice a week and tumor volumes are calculated based on mid-axis length and mid-axis width. Tumor volume data are transformed to a log scale to equalize variance across time and treatment groups. The log volume data are analyzed with a two-way repeated measures analysis of variance by time and treatment using the mixed procedures in SAS software (version 8.2). The correlation model for the repeated measures is spatial power. Treated groups are compared to the control group at each time point. The mixed procedure is also used separately for each treatment group to calculate adjusted means and standard errors at each time point. Both analyses account for the autocorrelation within each animal. The adjusted means and standard errors are plotted for each treatment group versus time.
For in vivo target inhibition and PD analysis, tumors are ground by mortar and pestle on dry ice and tumor fragments are added to 800 μL of lysis buffer containing 1% Triton X100, 25 mM Tris pH 7.5, 150 mM NaCl, 1 mM EDTA, and 1 mM EGTA with Halt protease and phosphatase inhibitor cocktail (Thermo Scientific, cat. no. 1861281) in lysing matrix D tubes (MP Biomedical®, cat. no. 6913-500) with one additional large bead (MP Biomedical® ¼″ ceramic sphere bead cat. no. 6540-412) per tube. Tumor fragments are homogenized in a Thermo Bio101® fast prep (FP120) at setting 4 for […] while cold for a total of 2 times. Lysates are spun at 14,000 rpm for 10 min at 4° C. to clarify. Protein estimation is done on the lysate supernatant using a BioRad Dc® protein assay and lysates are diluted in complete lysis/binding buffer from the Ras GTPase Chemi ELISA Kit® (Active Motif, cat. no. 52097). The active KRas ELISA was performed as follows: Glutathione-coated ELISA wells were incubated with diluted RAF1-GST in complete lysis/binding buffer for 1 hr at 4° C. with gentle agitation. Wells are washed 3 times with wash buffer and 100 μg of lysates are added to each well and incubated at RT for 1 hr with mild agitation. The wells are washed an additional 3 times, then primary antibody, diluted in antibody binding buffer, is added to each well. The plates are incubated for 1 hr. The wells are washed 3 more times before adding HRP-conjugated secondary antibody, diluted in antibody binding buffer, to each well. The plates are incubated at RT for 1 hr. ELISA wells are washed 4 times, chemiluminescent reagents is added and then luminescence is read. For pERK Meso Scale Discovery ELISA, 25 μg of protein containing 0.1% SDS is used; for pMEK Meso Scale Discovery ELISA, 50 μg of protein without SDS is used. Meso Scale Discovery Whole Cell Lysate Kits for pERK and pMEK are provided by Meso Scale Discovery.
The tumor samples are collected 4 hr post a single dose. The tumor lysates are prepared and the inhibition of pERK, pMEK, and active KRas is measured as described above.
After a single dose, the tumor samples are harvested at 2, 4, 8, 12 and 24 hr post doing. The tumor lysates are prepared and the inhibition of pERK, pMEK, and active KRas is measured as described above.

[4] = read-out: IC50 (μM) in 2 D cell proliferation
[5] = read-out: IC50 (μM) in 3 D spheroid cell proliferation

- IC50 [1, 4]: 0.014 µM
- IC50 [1, 5]: 0.086 µM
- IC50 [2, 4]: 12.1 µM
- IC50 [2, 5]: 19.5 µM
- EC50 ([3]; Mus musculus, NCI-H358, H358 xenograft, plasma exposure by mass spectrum, read-out: plasma concentration to achieve 50% target inhibition (TEC50), pMEK): 515 nM
SMILES: C=CC(=O)N1CCN(c2ncnc3c(F)c(-c4ccc(F)c5sc(N)nc45)c(Cl)cc23)CC1 [Example 1, 1-{4-[7-(2-Amino-7-fluoro-1,3-benzothiazol-4-yl)-6-chloro-8-fluoroquinazolin-4-yl]piperazin-1-yl}prop-2-en-1-one]
- % Inhibition pMEK ([3]; H358 xenograft, time course, 10 mg/kg single dose, 24 hr, 10 mg/kg): 30.4%
- dose to achieve 50% target inhibition (TED50), pMEK ([3]; H358 xenograft, single dose, 4 hr): 11.19 mg/kg
- inhibition at 10 mg/kg ([3]; Mus musculus, NCI-H358, 2 h, H358 xenograft, time course, 10 mg/kg single dose, 2 hr, read-out: % Inhibition pMEK): 49.2%
- inhibition at 30 mg/kg ([3]; Mus musculus, NCI-H358, 2 h, H358 xenograft, time course, 2 hr, read-out: % Inhibition pMEK): 81.4%
- inhibition at 10 mg/kg ([3]; Mus musculus, NCI-H358, 4 h, H358 xenograft, time course, 10 mg/kg single dose, 4 hr, read-out: % Inhibition pMEK): 59.5%
- inhibition at 30 mg/kg ([3]; Mus musculus, NCI-H358, 4 h, H358 xenograft, time course, 4 hr, read-out: % Inhibition pMEK): 89.3%
- inhibition at 1 mg/kg ([3]; Mus musculus, NCI-H358, 4 h, H358 xenograft, 1 mg/kg single dose, 4 hr post dose): -6.2%
- inhibition at 3 mg/kg ([3]; Mus musculus, NCI-H358, 4 h, H358 xenograft, 3 mg/kg single dose, 4 hr post dose): 11.1%
- inhibition at 10 mg/kg ([3]; Mus musculus, NCI-H358, 4 h, H358 xenograft, 10 mg/kg single dose, 4 hr post dose, read-out: % Inhibition pMEK): 43.1%
- inhibition at 30 mg/kg ([3]; Mus musculus, NCI-H358, 4 h, H358 xenograft, 4 hr post dose, read-out: % Inhibition pMEK): 82.1%
- inhibition at 100 mg/kg ([3]; Mus musculus, NCI-H358, 4 h, H358 xenograft, 100 mg/kg single dose, 4 hr post dose): 85.8%
- inhibition at 10 mg/kg ([3]; Mus musculus, NCI-H358, 8 h, H358 xenograft, time course, 10 mg/kg single dose, 8 hr, read-out: % Inhibition pMEK): 62.4%
- inhibition at 30 mg/kg ([3]; Mus musculus, NCI-H358, 8 h, H358 xenograft, time course, 8 hr, read-out: % Inhibition pMEK): 81.8%
- inhibition at 10 mg/kg ([3]; Mus musculus, NCI-H358, 12 h, H358 xenograft, time course, 10 mg/kg single dose, 12 hr, read-out: % Inhibition pMEK): 77.9%
- inhibition at 30 mg/kg ([3]; Mus musculus, NCI-H358, 12 h, H358 xenograft, time course, 12 hr, read-out: % Inhibition pMEK): 65.8%
- inhibition at 10 mg/kg ([3]; Mus musculus, NCI-H358, 24 h, H358 xenograft, time course, 10 mg/kg single dose, 24 hr, read-out: % Inhibition pMEK): 30%
- inhibition at 30 mg/kg ([3]; Mus musculus, NCI-H358, 24 h, H358 xenograft, time course, 24 hr, read-out: % Inhibition pMEK): 35%
- inhibition at 10 mg/kg ([3]; Mus musculus, NCI-H358, H358 xenograft, 10 mg/kg single dose, from 2-12 hr, read-out: pMEK inhibition): 49 to 78%
- inhibition at 30 mg/kg ([3]; Mus musculus, NCI-H358, H358 xenograft, from 2-24 hr, read-out: pMEK inhibition): 35 to 89%
